Patent publication US11207385B2, “Melanocortins and methods of use thereof” (Aequus Biopharma, Inc., priority 2015, dated 2021)
Blank lines part the entries; values can stand above or below the molecule they belong to. Square brackets hold non-standard residues; d marks the D form. Ends that are not written are not given here. Nle = CCCC[C@H](N)C(=O)O

Key:
[1] = biological target: T1, MCR2 (Homo sapiens, UniProt Q01718); test: cAMP production (LANCE cAMP assay) in CHO-MCR2 cells; format: cell-based
T1 construct: expressed in transfected cells; host or cells: CHO (CHO-MCR2)
T1 sequence (Q01718 whole entry): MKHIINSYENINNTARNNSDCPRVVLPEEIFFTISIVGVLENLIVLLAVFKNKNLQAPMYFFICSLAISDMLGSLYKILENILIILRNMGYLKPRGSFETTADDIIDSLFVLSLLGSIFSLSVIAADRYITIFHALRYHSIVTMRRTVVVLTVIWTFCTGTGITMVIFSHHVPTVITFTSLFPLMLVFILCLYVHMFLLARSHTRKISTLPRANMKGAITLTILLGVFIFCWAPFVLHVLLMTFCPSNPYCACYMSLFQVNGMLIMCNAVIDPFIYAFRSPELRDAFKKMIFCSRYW
T1 sequence (Q8TCY5 whole entry partner): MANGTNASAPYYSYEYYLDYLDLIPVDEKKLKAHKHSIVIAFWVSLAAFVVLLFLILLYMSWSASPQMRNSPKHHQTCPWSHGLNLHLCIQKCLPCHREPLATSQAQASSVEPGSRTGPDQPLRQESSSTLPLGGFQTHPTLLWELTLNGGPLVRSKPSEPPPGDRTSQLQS
From the text: The manufacturer's recommended protocol was followed.

[2] = biological target: T2, MCR4 (Homo sapiens, UniProt P32245); test: cAMP production (LANCE cAMP assay) in CHO-MCR4 cells; format: cell-based; details: Cell Pool B (partially enriched for MCR expression)
T2 construct: expressed in transfected cells; host or cells: CHO (CHO-MCR4)
T2 sequence (P32245 whole entry): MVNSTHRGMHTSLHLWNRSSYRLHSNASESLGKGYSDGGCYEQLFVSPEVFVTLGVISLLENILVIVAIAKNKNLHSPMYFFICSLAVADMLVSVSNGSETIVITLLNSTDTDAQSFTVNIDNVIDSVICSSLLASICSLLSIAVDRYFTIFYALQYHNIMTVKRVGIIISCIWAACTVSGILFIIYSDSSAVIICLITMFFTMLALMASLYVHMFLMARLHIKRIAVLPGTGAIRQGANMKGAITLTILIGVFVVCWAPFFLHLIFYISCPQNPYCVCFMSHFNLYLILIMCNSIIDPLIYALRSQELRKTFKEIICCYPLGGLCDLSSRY
Experimental: MCR stimulation in response to polypeptides added to cell culture media was measured by cAMP production via LANCE cAMP assay (Perkin Elmer cat #AD0263).
The manufacturer's recommended protocol was followed. […] To each well was added 5 uL of cell suspension (10,000 CHO-MCR cells per well, with Alexa-labeled antibodies). The mixtures were incubated for 30 minutes at room temperature. Then, to each well was added 10 uL of Detection Mix. The mixtures were incubated for 120 minutes at room temperature. […] This process was repeated for each of CHO-MCR1, CHO-MCR2, CHO-MCR3, CHO-MCR4 and CHO-MCR5 cells.

[3] = system: plasma corticosterone; test: Steroidogenic effects: corticosterone response in healthy mice (ELISA); format: in vivo, Balb/c mice; details: for Mean corticosterone: plasma 1 h after dosing
Experimental: Compositions described herein were administered to Balb/c mice to determine the half-maximal effective concentrations for induction of corticosteroids in healthy mice. Balb/c mice were divided into 13 groups of 4 animals each (Groups 1-13), and each animal was administered a composition at a dosage as indicated in Table 5.
Each animal was injected subcutaneously at 0.2 ml/mouse as in Table 5. One hour after vehicle or test compositions were administered, the mice were anesthetized and exsanguinated into pre-chilled EDTA-treated microtainer tubes (Becton-Dickinson). The whole blood was processed to plasma and assayed by ELISA for corticosterone (Enzo Life Sciences).

[4] = system: murine models of gout (MSU-injected air pouch); test: Murine air pouch model of gout, neutrophil counts and IL-1β in exudate (Example 6); format: in vivo, Balb/c mice; details: 3 and 10 nmol/mouse sc 1 h before MSU
Experimental: An air pouch was formed by injecting 6 mL of sterile air using a syringe filter with a 0.22 micron air filter and 23-gauge needle subcutaneously into a shaved skin site on the back of male Balb/c mice (age 6-8 weeks) on Day 0. The wound result from the pouch was allowed to heal for 3 days without any intervention. The pouch was then re-inflated with 3 mL of sterile air on Day 3. Three days after re-inflation on Day 6, compositions described herein were administered via subcutaneous injection 1 hour prior to the administration of 30 mg monosodium urate crystals (MSU) directly into the air pouch to induce an inflammatory response. Four hours after injection of MSU, mice were anesthetized and exsanguinated. Exudate from the air pouch was collected by lavaging the air pouch of each animal with 3 ml of sterile PBS containing 10 U/ml heparin. Analyses performed on exudates include determining neutrophil counts and IL-1β cytokine concentrations. […] 10 • 3) NDP-α-MSH-linker-linker-ACTH1-24, SEQ ID NO. 23 • 4) ACTH1-24-linker-linker-NDP-α-MSH, SEQ ID NO. 26
SEQ ID NOS. […] SEQ ID NO. 23 and SEQ ID NO. […] 10 in reducing neutrophil counts and IL-1β cytokine concentrations in collected exudate, and the arrangement of SEQ ID NO. […] 23.

[5] = Cell Pool B (partially enriched for MCR expression)
[6] = Cell Pool A (partially enriched for MCR expression)

EC50 ([1]; Cell Pool C (optimized cell bank)): > 100 nM
Molecule: CSCC[C@H](NC(=O)[C@H](CO)NC(=O)[C@H](Cc1ccc(O)cc1)NC(=O)[C@@H](N)CO)C(=O)N[C@@H](CCC(=O)O)C(=O)N[C@@H](Cc1c[nH]cn1)C(=O)N[C@@H](Cc1ccccc1)C(=O)N[C@@H](CCCNC(=N)N)C(=O)N[C@@H](Cc1c[nH]c2ccccc12)C(=O)NCC(=O)N[C@@H](CCCCN)C(=O)N1CCC[C@H]1C(=O)N[C@H](C(N)=O)C(C)C [compound 11]

EC50 [2]: 1.6 nM
EC50 [1, 5]: 0.18 nM
Molecule: SYSMEHFRWGKPVGKKRRPVKVYPPLPEGGPEPRSDGAKPGPREGKRSYS[Nle]EH[dF]RWGKPV [compound 39]

EC50 [2]: > 20 nM
EC50 [1, 5]: 0.15 nM
Molecule: SYSMEHFRWGKPVGKKRRPVKVYPPLPEGGPEPRSDGAKPGPREGKRSYSMEHFRWGKPV [compound 42]

Fold change over baseline (corticosterone) ([3]; 0.003 nmol/mouse sc): 0.8
Mean corticosterone ([3]; 0.003 nmol/mouse sc): 863553 pg/mL
Fold change over baseline (corticosterone) ([3]; 0.03 nmol/mouse sc): 1.0
Mean corticosterone ([3]; 0.03 nmol/mouse sc): 116070 pg/mL
Fold change over baseline (corticosterone) ([3]; 0.3 nmol/mouse sc): 1.8
Mean corticosterone ([3]; 0.3 nmol/mouse sc): 149581 pg/mL
Fold change over baseline (corticosterone) ([3]; 1.0 nmol/mouse sc): 3.3
Mean corticosterone ([3]; 1.0 nmol/mouse sc): 264845 pg/mL
Fold change over baseline (corticosterone) ([3]; 3.0 nmol/mouse sc): 3.4
Mean corticosterone ([3]; 3.0 nmol/mouse sc): 488734 pg/mL
Fold change over baseline (corticosterone) ([3]; 10.0 nmol/mouse sc): 4.4
Mean corticosterone ([3]; 10.0 nmol/mouse sc): 514583 pg/mL
effect on plasma corticosterone ([3]; 0.015, 0.15, and 1.5 μg/mouse sc): no significant effect
reduction in plasma corticosterone levels at equally active dose levels ([3]; 3 nanomole SEQ ID NO. 26 versus 10 nanomole SEQ ID NO. 10, healthy mice): 40%
plasma corticosterone levels (significantly increased, not different from each other) ([3]; 5.2-51.5 μg/mouse sc): ~500 ng/mL
Molecule: CCCC[C@H](NC(=O)[C@H](CO)NC(=O)[C@H](Cc1ccc(O)cc1)NC(=O)[C@H](CO)NC(=O)[C@H](CO)NC(=O)CNC(=O)CNC(=O)CNC(=O)CNC(=O)[C@H](CO)NC(=O)CNC(=O)CNC(=O)CNC(=O)CNC(=O)[C@@H]1CCCN1C(=O)[C@H](Cc1ccc(O)cc1)NC(=O)[C@@H](NC(=O)[C@H](CCCCN)NC(=O)[C@@H](NC(=O)[C@@H]1CCCN1C(=O)[C@H](CCCNC(=N)N)NC(=O)[C@H](CCCNC(=N)N)NC(=O)[C@H](CCCCN)NC(=O)[C@H](CCCCN)NC(=O)CNC(=O)[C@@H](NC(=O)[C@@H]1CCCN1C(=O)[C@H](CCCCN)NC(=O)CNC(=O)[C@H](Cc1c[nH]c2ccccc12)NC(=O)[C@H](CCCNC(=N)N)NC(=O)[C@H](Cc1ccccc1)NC(=O)[C@H](Cc1c[nH]cn1)NC(=O)[C@H](CCC(=O)O)NC(=O)[C@H](CCSC)NC(=O)[C@H](CO)NC(=O)[C@H](Cc1ccc(O)cc1)NC(=O)[C@@H](N)CO)C(C)C)C(C)C)C(C)C)C(=O)N[C@@H](CCC(=O)O)C(=O)N[C@@H](Cc1c[nH]cn1)C(=O)N[C@H](Cc1ccccc1)C(=O)N[C@@H](CCCNC(=N)N)C(=O)N[C@@H](Cc1c[nH]c2ccccc12)C(=O)NCC(=O)N[C@@H](CCCCN)C(=O)N1CCC[C@H]1C(=O)N[C@H](C(=O)O)C(C)C [SEQ ID NO. 26, ACTH1-24-linker-linker-NDP-α-MSH]
plasma corticosterone after a single subcutaneous injection (dose response, words) ([3]; single sc injection 0.2 ml/mouse, FIG. 14): dose-dependent increase in plasma corticosterone

Molecule: NDP-α-MSH-linker-linker-ACTH1-24 (Ac-SYS[Nle]EH[dF]RWGKPVGGGGSGGGGSSYSMEHFRWGKPVGKKRRPVKVYP) [SEQ ID NO. 23]
reducing neutrophil counts in collected exudate (comparison in words) ([4]; FIG. 8): more active than SEQ ID NO. 10
reducing IL-1β cytokine concentrations in collected exudate (comparison in words) ([4]; FIG. 9): more active than SEQ ID NO. 10

EC50 [1, 6]: 26 nM
Molecule: YVMGHFRWDRFGKRSYSMEHFRWGKPVGKKRRPVKVYP [compound 1]

EC50 [1, 5]: 0.15 nM
Molecule: SYSMEHFRWGKPVGKKRRPVKVYPELTGQRLREGDGPDGPADDGAGASYS[Nle]EH[dF]RWGKPV [compound 40]

EC50 [2]: > 20 nM
EC50 [1, 5]: 0.18 nM
Molecule: SYSMEHFRWGKPVGKKRRPVKVYPELTGQRLREGDGPDGPADDGAGASYSMEHFRWGKPV [compound 43]

EC50 [2]: > 100 nM
EC50 [1, 5]: > 100 nM
Molecule: YVMGHFRWDRFGRRNSSSSGSSGAGQKR [compound 9]

EC50 [1, 6]: 5 nM
Molecule: YVMGHFRWDRFGSYSMEHFRWGKPVGKKRRPVKVYP [compound 15]

EC50 [1, 6]: > 100 nM
Molecule: YVMGHFRWDRFGRRNSSSSGSSGAGQSYSMEHFRWGKPVGKKRRPVKVYP [compound 14]
